Results reported in US11123398B2, “Chemotherapeutic combinations of cationic antimicrobial peptides and chemotherapeutics” (LYTIX BIOPHARMA AS, priority 2014, dated 2021).
Non-standard residues stand in square brackets, D forms with d. Residues, ends and D or L forms follow the SMILES beside them. Dip = N[C@H](C(=O)O)C(c1ccccc1)c1ccccc1

Tests used:
T-47D cell line = format: cell-based, human; details: 4 h
Protocol: Tumor cells were plated in 96-well flat-bottom microtitration plates (Nunc, Dutscher, Brumath, France) and incubated at 37° C. for 24 hours before treatment in 190 μl of drug-free culture medium supplemented or not with 10% FBS for adherent or suspension growing cell lines, respectively.
The adherent cell lines were washed once with 200 μl FBS-free culture medium before treatment. Tumor cells were incubated for 4 hours with 10 concentrations of compounds in ¼ dilution step with a top dose of 400 μM (range 4×10^−4 to 4×10^−10 M), with 1% (final concentration) Triton X-100 as positive control and FBS-free culture medium as negative control. The cells (190 μl) were incubated in a 200 μl final volume of FBS-free culture medium containing test substances at 37° C. under 5% CO2.
Three independent experiments were performed, each concentration being tested in quadruplicate. Control cells were treated with vehicle alone. At the end of treatments, the cytotoxic activity was evaluated by a MTS assay (see § 3.3.).
(§1) Like MTT, MTS is bioreduced by cells into a formazan product that is directly soluble in culture medium without processing, unlike MTT.
(§2) At the end of the cells treatment, 40 μl of a 0.22 μm filtered freshly combined solution of MTS (20 ml at 2 mg/ml, Ref G1111, Batch 235897, Exp March 2009, Promega, Charbonnières, France) and PMS (1 ml at 0.92 mg/ml, Ref P9625, Batch 065K0961, Sigma) in Dulbecco's Phosphate Buffered Saline (DPBS, Ref 17-513Q, Batch 6MB0152, Cambrex), were added in each well. Culture plates were incubated for 2 h at 37° C. Absorbency (OD) were measured at 490 nm in each well using VICTOR^3™ 1420 multilabeled counter (Wallac, PerkinElmer, Courtaboeuf, France).
IC50: drug concentration to obtain a 50% inhibition of cell proliferation.
The dose-response curves were plotted using XLFit 3 (IDBS, United Kingdom). The IC50 determination values were calculated using the XLFit 3 software from semi-log curves. Individual IC50 determination values as well as mean and SD values were generated.

[1] = test system: panel of 10 lymphoma cell lines; format: cell-based, human
Protocol: Tumor cells were plated in 96-well flat-bottom microtitration plates (Nunc, Dutscher, Brumath, France) and incubated at 37° C. for 24 hours before treatment in 190 μl of drug-free and FBS-free culture medium.
[…] compounds in ¼ dilution step with a top dose of 400 μM (range 4×10^−4 to […]), with 1% (final concentration) Triton X-100 as positive control and FBS-free culture medium as negative control. The cells (190 μl) were incubated in a 200 μl final volume of FBS-free culture medium containing test substances at 37° C. under 5% CO2.
Three independent experiments were performed, each concentration being issued from quadruplicate. Control cells were treated with vehicle alone. At the end of treatments, the cytotoxic activity was evaluated by a MTS assay (see § 3.3 below).
as §1, §2
4.1. IC50 Data was Determined as in Example 1

[2] = test system: murine A20 B cell lymphoma cells; test: Re-challenge with A20 B-cell lymphoma in mice with complete regression; format: in vivo, Balb-c mice
Protocol: Methods: Female Balb-c mice (n=4), previously treated with LTX-315, 1 mg) or (n=9); previously treated with LTX-315 0.5 or 1 mg) were re-inoculated (s.c. in the abdominal area) with either murine A20 B cell lymphoma cells or CT26WT colon carcinoma cells (5 million) respectively 6 weeks following initial treatment with LTX-315. Tumour growth was monitored for up to 36 days following re-inoculation.

[3] = test system: murine A20 B-cell lymphoma; test: Adoptive spleen cell transfer, A20 lymphoma model; format: in vivo, Balb/c mice; details: donors: 1 mg intratumoural once daily for 3 days
Protocol: […] Balb/c mice (n=32) were each inoculated with A20 cells (5 million in 50 μL s.c.) on the abdominal surface. Once tumours had reached 20 mm^2 they were injected with LTX-315 (1 mg) injected intratumourally, once daily for 3 days, in a volume of 50 μL. Tumour size (mm^2) and body weight were subsequently monitored and a further injection of LTX-315 was given if any tumour re-growth was observed. Subsequently, mice showing complete tumour regression were sacrificed and used as donors for transfer of splenocytes while naive donor mice were used as controls. Spleens from donor mice were excised and cells isolated. Naive receiver mice were irradiated and divided into 2 groups. Group 1 received isolated splenocytes from cured mice, whereas group 2 received isolated splenocytes from naive mice. Freshly prepared cells were injected (20×106 per 100 μl) via the tail vein. Twenty four hours later receiver mice were inoculated with 5 million murine A20 B-cell lymphoma cells on the abdominal surface as described above. Tumour size and body weight were monitored until the maximum tumour burden of ˜125 mm^2 was reached, or a serious adverse events occurred (i.e. wound formation due to tumour tissue necrosis) at which point mice were sacrificed.

A375 cells [4] = test: Confocal microscopy with fluorescence-labeled peptide (internalization); format: cell-based, human; details: 3 μM and 1.5 μM, 30-60 min
Protocol: Subconfluential A375 cells were seeded at 8,000 cells/well as above, and transfected on the second day using the Lipofectamine LTX with Plus transfection reagents (Invitrogen) following the manufacturer's protocol. The mitochondria were labeled using the pDsRed2-Mito, and the nucleus was labeled using the GFP-Histon2B plasmid (Imaging Platform, University of Tromsø). A day after transfection, cells were washed twice with serum-free RPMI, and treated at different concentration and incubation periods with LTX-315 Pacific Blue or LTX-328 Pacific Blue. […] Control cells were treated with unlabeled LTX-315 and also with serum-free RPMI only. After incubation, cells were fixed with 4% paraformaldehyde in PBS, and the wells were covered with Prolong Gold antifade (Invitrogen). Cells were further analyzed by use of a Leica TCS SP5 confocal microscope, with a […] objective. Pacific Blue, GFP and Ds Red were excited using UV, with 488 and 561 lasers, and fluorescence channels were sequentially detected using the following band passes: UV: 420-480 nm (with attenuation), 488: 501-550 nm and 561: 576-676 nm.

human A547 cells = test: TEM, A547 cells; format: cell-based; details: 10 μg/ml, 60 minutes
A375 cells [5] = test: Fluorescence measurement of reactive oxygen species (ROS); format: cell-based, human; details: 15 minutes of incubation; concentration-dependent
Protocol: A DCFDA cellular reactive oxygen species detection assay kit was purchased from Abcam®, and A375 cells seeded in a 96-well Costar black clear bottom plate with 20,000 cells per well incubated in 37° C. 16 hours prior to DCFDA assay. Cells were washed with a 100 μL/well of pre-warmed PBS one time, and incubated with 20 μM of DCFDA in a buffer solution supplied with the kit at 37° C. in a cell culture incubator for 45 min, and then washed again with a buffer solution of 100 μL/well. […] The fluorescence intensity was determined at an excitation wavelength of 485 nm and an emission wavelength of 530 nm on a FLUOstar Galaxy plate reader.

Compound: NCCCC[C@H](NC(=O)[C@@H](NC(=O)[C@H](Cc1c[nH]c2ccccc12)NC(=O)[C@H](CCCCN)NC(=O)[C@H](CCCCN)NC(=O)[C@H](Cc1c[nH]c2ccccc12)NC(=O)[C@H](Cc1c[nH]c2ccccc12)NC(=O)[C@H](CCCCN)NC(=O)[C@@H](N)CCCCN)C(c1ccccc1)c1ccccc1)C(N)=O [LTX-315, K-K-W-W-K-K-W-Dip-K-NH2] (H-KKWWKKW[Dip]K-NH2)
- IC50 (T-47D cell line): 1180 ± 250 nM
- Potency rank among the five compounds tested, lymphoma panel [1]: most potent compound from the five compounds tested
- IC50 range against 10 human lymphoma cell lines ([1]; conclusion): micromolar range
- Tumour growth after re-inoculation versus control animals ([2]; all 4 mice previously treated with LTX-315 1 mg, re-inoculated 6 weeks after treatment, P<0.006): Significant inhibition
- Mice with complete tumour regression after re-inoculation ([2]; of 4 mice previously treated with 1 mg): 3
- Animals with relapse after re-inoculation ([2]; of 4 mice, 3 weeks later): 1
- Tumour growth in irradiated recipients of splenocytes from LTX-315-cured donors versus naive donors [3]: Inhibition of tumour growth was observed
- Internalization of Pacific Blue-labeled peptide (A375 cells [4]): rapidly penetrated the plasma membrane
- Effect on mitochondrial membrane (TEM) (human A547 cells): disintegration of the mitochondrial membrane
- ROS generation (A375 cells [5]): Significant amounts of ROS were generated
